# Experiments:
# [1] = tested on: Plasmodium berghei KBG-173; assay: Blood schizontocidal test, oral dosing, P. berghei in mice; type: in vivo, mouse; conditions: days 3-5 postinfection
# Method: Drugs were mixed in 0.5% hydroxycellulose 0.1% Tween 80 and administered orally b.i.d. on days 3, 4 and 5 postinfection. CD-1 male or female mice, 5 weeks of age, were infected with 5×10^4 parasitized erythrocytes of Plasmodium berghei KBG-173 mm strain. Blood films were taken on day +6 and weekly thereafter until day +60. Parasitemias were calculated and SD90 value (dose suppressing 90% of the parasites in treated groups compared with the infected non-treated controls) on day +6 postinfection. Mortality data was tabulated for 60 days at which time all mice surviving that were blood film negative were considered cured. […]
# [2] = tested on: Plasmodium berghei KBG-173; assay: Prophylactic test, oral, P. berghei in mice; type: in vivo, mouse
# From the text: Drugs were mixed in 0.5% hydroxycellulose 0.1% Tween 80 and administered orally b.i.d. either on day 5, 4, 3, 2, or 1 prior to the infection or 1 or 2 days postinfection. CD-I male or female mice, 5 weeks of age, were infected with 5×10^4 parasitized erythrocytes of Plasmodium berghei KBG-173 mm strain. Blood films were taken on day +6 and weekly thereafter until day+30. […]
# [3] = tested on: P. berghei; assay: Suppressive blood schizontocidal test, single subcutaneous dose, P. berghei in mice; type: in vivo, mouse; conditions: 72 h after infection
# Method: Mice were treated with a single dose of the compound administered subcutaneously 72 h. after infection. Number of cures is the number of mice surviving, out of five, 60 days postinfection.
# [4] = tested on: mouse; conditions: strong liver toxicity; cited from earlier work
# [5] = oral dose 0.25 mg/kg/day (total dose 0.75 mg/kg)
# [6] = oral dose 1.0 mg/kg/day (total dose 3.0 mg/kg)
# [7] = oral dose 4.0 mg/kg/day (total dose 12 mg/kg)
# [8] = oral dose 16 mg/kg/day (total dose 48 mg/kg)
# [9] = oral dose 64 mg/kg/day (total dose 192 mg/kg)
# [10] = single subcutaneous dose 1 mg/kg
# [11] = single subcutaneous dose 2 mg/kg
# [12] = single subcutaneous dose 4 mg/kg
# [13] = single subcutaneous dose 8 mg/kg
# [14] = single subcutaneous dose 16 mg/kg
# [15] = single subcutaneous dose 32 mg/kg
# [16] = single subcutaneous dose 64 mg/kg
# [17] = single subcutaneous dose 128 mg/kg
# [18] = single dose of 0.5 mg/kg, day of treatment 1
# [19] = single dose of 0.5 mg/kg, day of treatment 2
# [20] = single dose of 0.5 mg/kg, day of treatment −1
# [21] = single dose of 0.5 mg/kg, day of treatment −2
compound,measurement,setting,value
"CCN(CC)CCCC(C)Nc1ccnc2cc(Cl)ccc12 (centres unmarked) [Chloroquine, reference compound]",Mice surviving 60 days/Mice infected and treated,[1]; [5],0/7
same,Mice surviving 60 days/Mice infected and treated,[1]; [6],0/7
same,Mice surviving 60 days/Mice infected and treated,[1]; [7],2/7
same,Mice surviving 60 days/Mice infected and treated,[1]; [8],4/7
same,Mice surviving 60 days/Mice infected and treated,[1]; [9],0/7
"O=C(CC1NCCC1O)Cn1cnc2cccnc2c1=O (centres unmarked) [Compound I, 3-[3-(3-Hydroxy-pyrrolidin-2-yl)-2-oxo-propyl]-3H-pyrido[3,2-d]pyrimidin-4-one]",Mice surviving 60 days/Mice infected and treated,[1]; [5],7/7
same,Mice surviving 60 days/Mice infected and treated,[1]; [6],7/7
same,Mice surviving 60 days/Mice infected and treated,[1]; [7],7/7
same,Mice surviving 60 days/Mice infected and treated,[1]; [8],7/7
same,Mice surviving 60 days/Mice infected and treated,[1]; [9],7/7
same,Mice surviving day 60/Mice infected and treated,"[2]; oral, day of treatment 1, dose 0.5 mg/kg",5/5
same,Mice surviving day 60/Mice infected and treated,"[2]; oral, day of treatment 1, dose 2 mg/kg",5/5
same,Mice surviving day 60/Mice infected and treated,"[2]; oral, day of treatment 1, dose 8 mg/kg",5/5
same,Mice surviving day 60/Mice infected and treated,"[2]; oral, day of treatment 1, dose 32 mg/kg",5/5
same,Mice surviving day 60/Mice infected and treated,"[2]; oral, day of treatment 2, dose 0.5 mg/kg",5/5
same,Mice surviving day 60/Mice infected and treated,"[2]; oral, day of treatment 2, dose 2 mg/kg",5/5
same,Mice surviving day 60/Mice infected and treated,"[2]; oral, day of treatment 2, dose 8 mg/kg",5/5
same,Mice surviving day 60/Mice infected and treated,"[2]; oral, day of treatment 2, dose 32 mg/kg",5/5
same,Mice surviving day 60/Mice infected and treated,"[2]; oral, day of treatment −1, dose 0.5 mg/kg",5/5
same,Mice surviving day 60/Mice infected and treated,"[2]; oral, day of treatment −1, dose 2 mg/kg",5/5
same,Mice surviving day 60/Mice infected and treated,"[2]; oral, day of treatment −1, dose 8 mg/kg",5/5
same,Mice surviving day 60/Mice infected and treated,"[2]; oral, day of treatment −1, dose 32 mg/kg",5/5
same,Mice surviving day 60/Mice infected and treated,"[2]; oral, day of treatment −2, dose 0.5 mg/kg",5/5
same,Mice surviving day 60/Mice infected and treated,"[2]; oral, day of treatment −2, dose 2 mg/kg",5/5
same,Mice surviving day 60/Mice infected and treated,"[2]; oral, day of treatment −2, dose 8 mg/kg",5/5
same,Mice surviving day 60/Mice infected and treated,"[2]; oral, day of treatment −2, dose 32 mg/kg",5/5
same,Mice surviving day 60/Mice infected and treated,"[2]; oral, day of treatment −3, dose 0.5 mg/kg",0/5
same,Mice surviving day 60/Mice infected and treated,"[2]; oral, day of treatment −3, dose 2 mg/kg",5/5
same,Mice surviving day 60/Mice infected and treated,"[2]; oral, day of treatment −3, dose 8 mg/kg",5/5
same,Mice surviving day 60/Mice infected and treated,"[2]; oral, day of treatment −3, dose 32 mg/kg",5/5
same,Protection from malaria (oral prophylactic activity),[2]; single dose of 0.5 mg/kg within 2 days preinfection through 2 days post infection,completely protected from malaria
same,Mice surviving 60 days/Mice infected and treated,[3]; [10],4/5
same,Mice surviving 60 days/Mice infected and treated,[3]; [11],5/5
same,Mice surviving 60 days/Mice infected and treated,[3]; [12],5/5
same,Mice surviving 60 days/Mice infected and treated,[3]; [13],5/5
same,Mice surviving 60 days/Mice infected and treated,[3]; [14],5/5
same,Mice surviving 60 days/Mice infected and treated,[3]; [15],5/5
same,Mice surviving 60 days/Mice infected and treated,[3]; [16],5/5
same,Mice surviving 60 days/Mice infected and treated,[3]; [17],5/5
"O=C(CC1NCCC1O)Cn1cnc2ccncc2c1=O (centres unmarked) [Compound II, 3-[3-(3-Hydroxy-pyrrolidin-2-yl)-2-oxo-propyl]-3H-pyrido[4,3-d]pyrimidin-4-one]",Mice surviving 60 days/Mice infected and treated,[1]; [5],7/7
same,Mice surviving 60 days/Mice infected and treated,[1]; [6],7/7
same,Mice surviving 60 days/Mice infected and treated,[1]; [7],7/7
same,Mice surviving 60 days/Mice infected and treated,[1]; [8],7/7
same,Mice surviving 60 days/Mice infected and treated,[1]; [9],7/7
same,Mice surviving day 60/Mice infected and treated,[2]; [18],5/5
same,Mice surviving day 60/Mice infected and treated,[2]; [19],5/5
same,Mice surviving day 60/Mice infected and treated,[2]; [20],5/5
same,Mice surviving day 60/Mice infected and treated,[2]; [21],5/5
same,Mice surviving 60 days/Mice infected and treated,[3]; [10],4/5
same,Mice surviving 60 days/Mice infected and treated,[3]; [11],5/5
same,Mice surviving 60 days/Mice infected and treated,[3]; [12],5/5
same,Mice surviving 60 days/Mice infected and treated,[3]; [13],5/5
same,Mice surviving 60 days/Mice infected and treated,[3]; [14],5/5
same,Mice surviving 60 days/Mice infected and treated,[3]; [15],5/5
same,Mice surviving 60 days/Mice infected and treated,[3]; [16],5/5
same,Mice surviving 60 days/Mice infected and treated,[3]; [17],5/5
"O=C(CC1NCCC1O)Cn1cnc2cccc(F)c2c1=O (centres unmarked) [Compound III, 5-Fluoro-3-[3-(3-hydroxy-pyrrolidin-2-yl)-2-oxo-propyl]-3H-quinazolin-4-one]",Mice surviving 60 days/Mice infected and treated,[1]; [5],5/7
same,Mice surviving 60 days/Mice infected and treated,[1]; [6],6/7
same,Mice surviving 60 days/Mice infected and treated,[1]; [7],7/7
same,Mice surviving 60 days/Mice infected and treated,[1]; [8],7/7
same,Mice surviving 60 days/Mice infected and treated,[1]; [9],7/7
same,Mice surviving day 60/Mice infected and treated,[2]; [18],5/5
same,Mice surviving day 60/Mice infected and treated,[2]; [19],5/5
same,Mice surviving day 60/Mice infected and treated,[2]; [20],5/5
same,Mice surviving day 60/Mice infected and treated,[2]; [21],5/5
same,Mice surviving 60 days/Mice infected and treated,[3]; [10],4/5
same,Mice surviving 60 days/Mice infected and treated,[3]; [11],5/5
same,Mice surviving 60 days/Mice infected and treated,[3]; [12],5/5
same,Mice surviving 60 days/Mice infected and treated,[3]; [13],5/5
same,Mice surviving 60 days/Mice infected and treated,[3]; [14],5/5
same,Mice surviving 60 days/Mice infected and treated,[3]; [15],5/5
same,Mice surviving 60 days/Mice infected and treated,[3]; [16],5/5
same,Mice surviving 60 days/Mice infected and treated,[3]; [17],5/5
"O=C(CC1NCCC1O)Cn1cnc2ccc(F)c(F)c2c1=O (centres unmarked) [Compound IV, 5,6-Difluoro-3-[3-(3-hydroxy-pyrrolidin-2-yl)-2-oxo-propyl]-3H-quinazolin-4-one]",Mice surviving 60 days/Mice infected and treated,[1]; [5],6/7
same,Mice surviving 60 days/Mice infected and treated,[1]; [6],7/7
same,Mice surviving 60 days/Mice infected and treated,[1]; [7],7/7
same,Mice surviving 60 days/Mice infected and treated,[1]; [8],7/7
same,Mice surviving 60 days/Mice infected and treated,[1]; [9],7/7
same,Mice surviving day 60/Mice infected and treated,[2]; [18],5/5
same,Mice surviving day 60/Mice infected and treated,[2]; [19],5/5
same,Mice surviving day 60/Mice infected and treated,[2]; [20],5/5
same,Mice surviving day 60/Mice infected and treated,[2]; [21],5/5
same,Mice surviving 60 days/Mice infected and treated,[3]; [10],4/5
same,Mice surviving 60 days/Mice infected and treated,[3]; [11],5/5
same,Mice surviving 60 days/Mice infected and treated,[3]; [12],5/5
same,Mice surviving 60 days/Mice infected and treated,[3]; [13],5/5
same,Mice surviving 60 days/Mice infected and treated,[3]; [14],5/5
same,Mice surviving 60 days/Mice infected and treated,[3]; [15],5/5
same,Mice surviving 60 days/Mice infected and treated,[3]; [16],5/5
same,Mice surviving 60 days/Mice infected and treated,[3]; [17],5/5
"O=C(CC1NCCC1O)Cn1cnc2cccc(C(F)(F)F)c2c1=O (centres unmarked) [Compound V, 3-[3-(3-Hydroxy-pyrrolidin-2-yl)-2-oxo-propyl]-5-trifluoromethyl-3H-quinazolin-4-one]",Mice surviving 60 days/Mice infected and treated,[1]; [5],7/7
same,Mice surviving 60 days/Mice infected and treated,[1]; [6],7/7
same,Mice surviving 60 days/Mice infected and treated,[1]; [7],7/7
same,Mice surviving 60 days/Mice infected and treated,[1]; [8],7/7
same,Mice surviving 60 days/Mice infected and treated,[1]; [9],7/7
same,Mice surviving day 60/Mice infected and treated,[2]; [18],5/5
same,Mice surviving day 60/Mice infected and treated,[2]; [19],5/5
same,Mice surviving day 60/Mice infected and treated,[2]; [20],5/5
same,Mice surviving day 60/Mice infected and treated,[2]; [21],5/5
same,Mice surviving 60 days/Mice infected and treated,[3]; [10],4/5
same,Mice surviving 60 days/Mice infected and treated,[3]; [11],5/5
same,Mice surviving 60 days/Mice infected and treated,[3]; [12],5/5
same,Mice surviving 60 days/Mice infected and treated,[3]; [13],5/5
same,Mice surviving 60 days/Mice infected and treated,[3]; [14],5/5
same,Mice surviving 60 days/Mice infected and treated,[3]; [15],5/5
same,Mice surviving 60 days/Mice infected and treated,[3]; [16],5/5
same,Mice surviving 60 days/Mice infected and treated,[3]; [17],5/5
"O=C(C[C@H]1NCCC[C@@H]1O)Cn1cnc2ccccc2c1=O [Febrifugine, reference compound]",Dosage at which mouse toxic death occurred,[4],10 mg/kg/day
same,Mice surviving 60 days/Mice infected and treated,[1]; [5],1/7
same,Mice surviving 60 days/Mice infected and treated,[1]; [6],2/7
same,Mice surviving 60 days/Mice infected and treated,[1]; [7],5/7
same,Mice surviving 60 days/Mice infected and treated,[1]; [8],0/7
same,Mice surviving 60 days/Mice infected and treated,[1]; [9],0/7

# From patent US20080188498A1, “Pyridopyrimidinone compounds with antimalarial activity” (Radix Pharmaceuticals, Inc., priority 2007, published 2008)
